Here are results for twelve compounds from ChEMBL document CHEMBL1201862, “PubChem BioAssay data set” (2004).

Assay [1] is described as follows: SNU-C1 cell viability reduction, dose response, CellTiter-Glo luminescence (AID 1117323). In kind it is functional, cell-based.
A short description of assay [2]: Reduced DLD-1 viability, concentration-response, CellTiter-Glo luminescence (AID 1117352). In kind it is functional. (In general: ATP-based viability assays read luminescence as a measure of living cells.)
Assay [3] in a line: RKO cell viability reduction, dose response, CellTiter-Glo luminescence (AID 1117322). The format is functional.
The nature of assay [4]: CellTiter-Glo luminescence survival assay, SW480 colon tumor line, concentration-response curve, half-maximal inhibitory concentration (AID 1117338). In kind it is functional.
The nature of assay [5]: cytotoxicity toward Colo320 cells – cell-based, CellTiter-Glo luminescence, IC50, dose response (AID 1117334). In kind it is functional. To be noted: COLO 320.
Assay [6] is described as follows: cytotoxicity toward HCT116 cells – cell-based, CellTiter-Glo luminescence, IC50, dose response (AID 1117332). In kind it is functional. Conditions: HCT-116.
Assay [7] can be described thus: cytotoxicity toward HT-29 cells – cell-based, CellTiter-Glo luminescence, IC50, dose response (AID 1117330). In kind it is functional.
Assay [8] can be described thus: HCT116 cell viability decrease, GSK3B pretreatment – CellTiter-Glo, IC50, dose response (AID 1117339). The format is functional. Conditions: HCT-116.
The subject of assay [9] is HEK293. Put plainly: EBV LMP1 TES2 canonical NF-kB signalling blockers – cell-based, HEK293, luciferase, cherry-pick, dose response (AID 588343). In kind it is functional. Conditions: Homo sapiens.
Assay [10] can be described thus: blockers of bursicon-stimulated LGR2 cAMP reporter – cell-based, HEK293, CRE-luciferase reporter, cherry pick, set 2, dose response (AID 743343).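 Also: transfected cells were stimulated with diluted bursicon conditioned medium after compound addition.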 In kind it is functional.
Assay [11] in a line: blockade of melanocortin 4 receptor signaling – cell-based, plate reader, cherry pick, counter-screen for LGR2 antagonist project, dose response (AID 743444).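 Also: transfected HEK 293 cells stimulated with alpha-MSH peptide; potency of inhibitors of the alpha-MSH evoked signal.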 The format is functional. A general note: A counterscreen serves to expose hits that act by an unwanted route or on another target.
Assay [12] deals with T1, High affinity choline transporter 1 (Homo sapiens, UniProt Q9GZV3).
T1 sequence (Q9GZV3 whole entry): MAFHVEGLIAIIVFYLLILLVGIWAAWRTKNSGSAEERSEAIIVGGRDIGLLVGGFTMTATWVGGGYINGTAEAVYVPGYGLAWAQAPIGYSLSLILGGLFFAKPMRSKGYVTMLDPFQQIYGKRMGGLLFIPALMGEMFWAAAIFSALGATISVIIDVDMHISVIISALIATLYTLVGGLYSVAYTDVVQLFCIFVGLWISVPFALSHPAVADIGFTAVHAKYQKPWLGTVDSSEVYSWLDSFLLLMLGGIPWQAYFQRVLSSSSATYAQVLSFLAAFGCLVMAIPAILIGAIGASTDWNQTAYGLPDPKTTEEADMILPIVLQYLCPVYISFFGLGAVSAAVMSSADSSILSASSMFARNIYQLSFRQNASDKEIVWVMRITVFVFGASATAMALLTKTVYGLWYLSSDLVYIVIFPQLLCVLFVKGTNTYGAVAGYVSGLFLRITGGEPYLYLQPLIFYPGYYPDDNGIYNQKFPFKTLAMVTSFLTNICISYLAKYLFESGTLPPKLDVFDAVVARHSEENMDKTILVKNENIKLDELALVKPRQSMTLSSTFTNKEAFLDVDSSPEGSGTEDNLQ
Put plainly: human choline transporter blockers, potency – cell-based, 5-point CRC, membrane potential dye, dose response (AID 504840). In kind it is functional.

The test system of assay [13] is Escherichia coli. Description: microbe, parasite or virus in culture.
Assay [14] concerns the target T2, Oxysterols receptor LXR-beta (Homo sapiens, UniProt P55055).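 Also: agonist activity at LXR measured by a cell-based luminescence readout across a dose range, run as a counterscreen for daf-12 agonists; HEK293 cells with Gal4-LXR fusion and GAL4-driven luciferase reporter; potency for activation of Gal4-LXR reporter so compounds are agonists.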
T2 sequence (P55055 whole entry): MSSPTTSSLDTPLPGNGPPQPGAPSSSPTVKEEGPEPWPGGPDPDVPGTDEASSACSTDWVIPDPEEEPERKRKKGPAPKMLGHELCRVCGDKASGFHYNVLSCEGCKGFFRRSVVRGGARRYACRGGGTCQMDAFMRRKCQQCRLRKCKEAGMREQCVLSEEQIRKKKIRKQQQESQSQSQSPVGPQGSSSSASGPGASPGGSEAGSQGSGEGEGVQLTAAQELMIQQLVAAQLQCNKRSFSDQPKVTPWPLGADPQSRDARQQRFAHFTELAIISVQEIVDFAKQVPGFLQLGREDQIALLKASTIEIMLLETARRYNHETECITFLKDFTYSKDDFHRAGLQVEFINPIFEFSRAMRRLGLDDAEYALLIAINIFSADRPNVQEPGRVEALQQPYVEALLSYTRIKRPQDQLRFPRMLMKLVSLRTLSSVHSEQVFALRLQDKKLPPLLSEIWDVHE
The format is functional, cell-based.

A short description of assay [15]: viability of uninfected HEp-2 cells – cell-based, HTS, cytotoxicity control for RSV inhibitor project, dose response (AID 2410). The format is functional. Conditions: human respiratory syncytial virus.
For assay [16], the target named is T3, Ubiquitin-conjugating enzyme E2 N (Homo sapiens, UniProt P61088).
T3 sequence (P61088 whole entry): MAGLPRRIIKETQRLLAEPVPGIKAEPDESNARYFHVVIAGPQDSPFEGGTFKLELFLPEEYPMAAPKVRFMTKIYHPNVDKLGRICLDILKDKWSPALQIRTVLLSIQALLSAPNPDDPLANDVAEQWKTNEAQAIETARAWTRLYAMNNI
The format is functional.

Assay [17] addresses T3, Ubiquitin-conjugating enzyme E2 N. The format is functional. The source holds these as a separate data set.
For assay [18], the target named is T4, Bcl-2-related protein A1 (Mus musculus, UniProt Q07440).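 Also: confirmatory dose–response counterscreen on Bfl-1, used to check hits from a UBC13 polyubiquitin inhibitor campaign.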
T4 sequence (Q07440 whole entry): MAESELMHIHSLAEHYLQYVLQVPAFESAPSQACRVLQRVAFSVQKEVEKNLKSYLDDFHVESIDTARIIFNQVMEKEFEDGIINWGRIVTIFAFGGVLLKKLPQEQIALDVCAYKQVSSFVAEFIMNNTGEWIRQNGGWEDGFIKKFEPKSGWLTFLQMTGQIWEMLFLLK
In kind it is functional.

Assay [19] deals with Streptococcus. Put plainly: GAS UMAA2166 growth inhibition – luminescence, BacTiterGlo, counter-screen for streptokinase expression inhibitor project, dose response (AID 1915).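 Also: potency for reduction of bacterial viability or growth.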 In kind it is functional, organism-based.
A short description of assay [20]: viability loss of HPDE-C7K cells – cell-based, fluorescence, HTS, primary screen (AID 431). In kind it is functional. To be noted: Homo sapiens.
A short description of assay [21]: HPDE-C7 pancreatic duct cell viability loss – fluorescence, HTS (AID 430). The format is functional, cell-based. To be noted: Homo sapiens.
Assay [22] addresses T5, Streptokinase A (Streptococcus pyogenes serotype M1, UniProt P10520).
T5 sequence (P10520 whole entry): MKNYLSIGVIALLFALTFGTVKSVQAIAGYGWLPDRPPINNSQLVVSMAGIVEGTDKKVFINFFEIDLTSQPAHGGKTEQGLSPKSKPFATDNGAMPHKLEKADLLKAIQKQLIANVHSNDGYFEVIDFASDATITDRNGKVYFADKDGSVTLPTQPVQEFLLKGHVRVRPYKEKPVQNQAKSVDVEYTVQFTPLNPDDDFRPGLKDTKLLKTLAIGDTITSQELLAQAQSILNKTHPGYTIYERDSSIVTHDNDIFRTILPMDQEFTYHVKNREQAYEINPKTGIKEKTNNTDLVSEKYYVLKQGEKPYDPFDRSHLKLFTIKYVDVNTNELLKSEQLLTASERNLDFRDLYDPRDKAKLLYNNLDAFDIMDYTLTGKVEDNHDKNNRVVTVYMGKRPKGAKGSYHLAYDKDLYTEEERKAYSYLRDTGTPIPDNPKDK
Description: viability-normalized secreted streptokinase activity reduction – plasminogen activation absorbance, OD405, dose response (AID 1914).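 Also: secreted streptokinase activity via plasminogen activation per viability signal from cell pellet.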 In kind it is functional, Streptococcus pyogenes M1 GAS.

Assay [23] has as its system Streptococcus sp. 'group A'. Put plainly: Streptococcus pyogenes SK(-)GAS viability under kanamycin – luminescence, BacTiterGlo, confirmation, counter-screen for streptokinase expression inhibitor project, dose response (AID 1900). The format is functional, organism-based.
Assay [24] deals with HEK293. Put plainly: inhibition of NOD1-driven NF-kB reporter – cell-based, luminescence, uHTS, primary screen (AID 1578). In kind it is functional. Conditions: Homo sapiens.
Assay [25] deals with HEK293. Description: cells. The format is functional, cell-based. To be noted: Homo sapiens.
Assay [26] relates to HEK293. Put plainly: cells. In kind it is functional, cell-based. Conditions: Homo sapiens. The source holds these as a separate data set.
For assay [27], the system named is HEK293. Put plainly: NOD2 signaling inhibitors in MDP-stimulated cells, cell-based, uHTS, luminescence (AID 2001). The format is functional. To be noted: Homo sapiens.
In assay [28] the target is G-protein coupled receptor 55 (Homo sapiens, UniProt Q9Y2T6). Put plainly: inhibition of LPI-stimulated GPR55 beta-arrestin translocation – imaging, U2OS, beta-arrestin-GFP, LPI agonist, primary screen (AID 2013).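 Also: antagonist potency measured as reduced agonist-driven arrestin aggregation.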 In kind it is functional.

Molecules are shown by their SMILES. Calls of active or inactive are those of the source.

Chain of G-protein coupled receptor 55 (Q9Y2T6 whole entry): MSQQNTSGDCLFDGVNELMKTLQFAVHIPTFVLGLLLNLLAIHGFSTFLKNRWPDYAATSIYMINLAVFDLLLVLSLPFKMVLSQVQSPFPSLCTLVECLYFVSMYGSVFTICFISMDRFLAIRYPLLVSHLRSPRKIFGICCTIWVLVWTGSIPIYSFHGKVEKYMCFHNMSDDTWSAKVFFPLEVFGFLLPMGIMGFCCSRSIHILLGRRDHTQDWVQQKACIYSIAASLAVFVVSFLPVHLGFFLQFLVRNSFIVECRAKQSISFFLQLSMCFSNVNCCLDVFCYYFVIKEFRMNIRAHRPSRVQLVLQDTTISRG

On to `C=CC(C)(O)CCC=C(C)CCC=C(C)C` (stereo not drawn), for which the IC50 (usually the concentration at which inhibition is half-maximal) in assay [1] was > 20 µM (inactive); in [2], > 20 µM (inactive); in assay [3], > 20 µM (inactive); in [4], > 20 µM (inactive); in [5], 10.3 µM (inactive); in [6], > 20 µM (inactive). The IC50 in [7] and in assay [8] was > 20 µM (inactive) each time.
`O=C(CN1C(=O)c2ccccc2S1(=O)=O)c1ccccc1F`: the AC50 – broadly, the midpoint of the concentration-response curve, whichever way the signal moves – was 3.69 µM (active) in [9], 2.28 µM (active) in assay [10] and 4.05 µM (active) in assay [11].
Turning to `Cc1ccc(-c2nnc(OCC3CCCO3)c3ccccc23)cc1` (stereo not drawn), the IC50 in [12] was 14.5 µM (active).
As to `Cc1ccc(NC(=O)COC(=O)CCC(=O)c2cccs2)c(C)c1`, in assay [13], the AC50 is > 150 µM (inactive).
Regarding `O=C(N/N=C/c1ccsc1)c1c[nH]c2ccccc12`, the IC50 in assay [12] is 3.8 µM (active).
Take `CCN(CC)S(=O)(=O)c1cc(C(=O)OCC(=O)Nc2ccc(-c3nc4ccc(C)cc4s3)cc2)ccc1F`: the EC50 (in general, the concentration giving half of the maximal effect) in [14] was > 67.5 µM (inactive). Further, the CC50 (usually the concentration at which the toxic effect on the cells reaches its halfway point) in [15] was 11.4 µM (active). Moreover, the AC50 in assay [10] is 3.17 µM (active); in [11], 3.11 µM (active).
On to `CCc1ccc(C2CC(c3ccco3)=NN2S(C)(=O)=O)cc1` (stereo not drawn), for which the EC50 in assay [14] was > 67.5 µM (inactive).
Take `CC(C)c1ccc(NC(=O)C[n+]2ccn(C3=C([O-])c4ccccc4C3=O)c2)cc1`: the values for the IC50 in assay [16], in [17] and in [18] were 11.8 µM (active), 17.8 µM (active) and > 20 µM (inactive), respectively.
Consider `O=C(C1CC(=O)N(C2CCCC2)C1)N1CCN(c2ccc(F)cc2)CC1` (stereo not drawn), for which the AC50 in assay [13] was 31.8 µM (active).
Consider `CCCOC(=O)c1ccc(Oc2c(C)n[nH]c2-c2ccc(OC)cc2O)cc1`, for which the EC50 is 28.5 µM (active) in [19]; 6.36 µM (active) in assay [20]; 12.2 µM (active) in [21]; > 150 µM (not active) in assay [22]; 14.1 µM (active) in assay [23].
For the compound `Cc1conc1NC(c1cccs1)c1ccc2cccnc2c1O` (stereo not drawn), the EC50 is > 20 µM (inactive) in assay [24]; 7.33 µM (active) in assay [19]; 5.68 µM (active) in [20]; 10.2 µM (active) in [21]; > 150 µM (not active) in assay [22]; 1.93 µM (active) in assay [23]. Also, the IC50 in [25] is 4.74 µM (active); in assay [26], > 20 µM (inactive); in assay [27], 6.1 µM (active).
Regarding `CCCSc1ncc(Cl)c(C(=O)Nc2ccc(S(=O)(=O)N3CC(C)OC(C)C3)cc2)n1` (stereo not drawn), in assay [28], the IC50 is 5.75 µM (active).
